Key:
[1] = biological target: T1, recombinant human FLAP protein (Homo sapiens, UniProt P20292); assay: FLAP binding assay (SPA, displacement of [125I]L-691,831); conditions: membranes of sf9 cells expressing recombinant human FLAP; [125I]L-691,831 probe; read-out: FLAP binding IC50
T1 construct: made in house; host or cells: Sf9 insect cells (100,000×g membrane pellet used)
T1 sequence (P20292 1-161): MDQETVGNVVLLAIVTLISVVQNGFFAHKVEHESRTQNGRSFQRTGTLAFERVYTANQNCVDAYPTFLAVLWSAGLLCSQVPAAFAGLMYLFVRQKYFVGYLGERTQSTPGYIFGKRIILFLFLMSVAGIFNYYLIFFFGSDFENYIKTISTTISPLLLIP
Outline: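 Membranes from sf9 cells expressing human FLAP in pH 7.5 Tris buffer (MgCl2, EDTA, PMSF). Non-specific binding defined with 10 μM cold L-691,831.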

[2] = system: synthesis of LTB4 in human whole blood; assay: Human whole blood assay (inhibition of LTB4 synthesis, calcimycin stimulated); assay type: cell-based; conditions: heparinized human whole blood, calcimycin 20 μM, plasma LTB4
Outline: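 Whole-blood cellular format, heparinized human donors: 15 min compound pretreatment, then 30 min calcimycin stimulation (20 μM final), both at 37° C. Low-speed centrifugation yields plasma, in which LTB4 is read by homogeneous time-resolved fluorescence immunoassay.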

With CN(C)C(=O)Cn1cc(-c2nc(C(C)(c3ccc(-c4cnc5[nH]ccc5c4)cc3)C3CC3)no2)cn1 (centres unmarked) [Example 242, 2-[4-(3-{1-Cyclopropyl-1-[4-(1H-pyrrolo[2,3-b]pyridin-5-yl)-phenyl]-ethyl}-[1,2,4]oxadiazol-5-yl)-pyrazol-1-yl]-N,N-dimethyl-acetamide] the IC50 [1] was 5.7 nM and the IC50 [2] was 310 nM.
With Cn1cc(-c2nc([C@](C)(c3ccc(-c4cnc(N)nc4)cc3)C3CCC3)no2)cn1 [Example 122, 5-(4-{(1S)-1-cyclobutyl-1-[5-(1-methyl-1H-pyrazol-4-yl)-1,2,4-oxadiazol-3-yl]ethyl}phenyl)pyrimidin-2-amine] the IC50 [1] was 140 nM and the IC50 [2] was 3200 nM.
Work on CC(C)C(C)(c1ccc(-c2cnc(N)nc2)cc1)c1noc(N2CCC(C(=O)O)CC2)n1 (centres unmarked) [Example 219, 1-(3-{1-[4-(2-Amino-pyrimidin-5-yl)-phenyl]-1,2-dimethyl-propyl}-[1,2,4]oxadiazol-5-yl)-piperidine-4-carboxylic acid] yielded an IC50 [1] of 39 nM and an IC50 [2] of over 5000 nM.
Molecule CN(C)C(=O)Cn1cc(-c2nc(C(C)(c3ccc(-c4ccc(N)nc4C#N)cc3)C3CC3)no2)cn1 (centres unmarked) [Example 296] has an IC50 [1] of 12 nM and an IC50 [2] of 230 nM.
In the case of COCCn1cc(-c2nc([C@@](C)(c3ccc(-c4cnc(N)nc4)cc3)C3CCC3)no2)cn1 [Example 100, 5-{4-[(1R)-1-cyclobutyl-1-{5-[1-(2-methoxyethyl)-1H-pyrazol-4-yl]-1,2,4-oxadiazol-3-yl}ethyl]phenyl}pyrimidin-2-amine], the IC50 [1] is reported as 2.3 nM and the IC50 [2] is reported as 110 nM.
With CC(C)C(C)(c1ccc(-c2cnc(N)nc2)cc1)c1noc(-c2cnco2)n1 (centres unmarked) [Example 132, 5-(4-{3-methyl-2-[5-(1,3-oxazol-5-yl)-1,2,4-oxadiazol-3-yl]butan-2-yl}phenyl)pyrimidin-2-amine] the IC50 [1] was 2.8 nM and the IC50 [2] was 330 nM.
With CC(C)C(C)(c1ccc(-c2cnc(N)nc2)cc1)c1noc(NCCO)n1 (centres unmarked) [Example 80, 2-[(3-{2-[4-(2-aminopyrimidin-5-yl)phenyl]-3-methylbutan-2-yl}-1,2,4-oxadiazol-5-yl)amino]ethanol] the IC50 [1] was 23 nM and the IC50 [2] was 350 nM.
For CC(C)C(C)(c1ccc(-c2cnc(N)nc2)cc1)c1noc(C(C)(C)CC(=O)O)n1 (centres unmarked) [Example 92, 3-(3-{2-[4-(2-aminopyrimidin-5-yl)phenyl]-3-methylbutan-2-yl}-1,2,4-oxadiazol-5-yl)-3-methylbutanoic acid], the IC50 [1] was 110 nM and the IC50 [2] was over 5000 nM.
CC(c1ccc(-c2cnc(N)nc2)cc1)(c1noc(N2CCC[C@H](O)C2)n1)C1CC1 (stereo partly drawn) [Example 288, (S)-1-(3-{1-[4-(2-Amino-pyrimidin-5-yl)-phenyl]-1-cyclopropyl-ethyl}-[1,2,4]oxadiazol-5-yl)-piperidin-3-ol] gave an IC50 [1] of 2.5 nM and an IC50 [2] of 200 nM.
CC(C)C(C)(c1ccc(-c2cnc(N)nc2)cc1)c1noc(-c2cnn(CC(C)(C)O)c2)n1 (centres unmarked) [Example 159, 1-[4-(3-{2-[4-(2-aminopyrimidin-5-yl)phenyl]-3-methylbutan-2-yl}-1,2,4-oxadiazol-5-yl)-1H-pyrazol-1-yl]-2-methylpropan-2-ol] showed an IC50 [1] of 4.6 nM and an IC50 [2] of 83 nM.
CN(C)CCn1cc(-c2nc([C@@](C)(c3ccc(-c4cnc(N)nc4)cc3)C3CC3)no2)cn1 [Example 182, 5-[4-((R)-1-Cyclopropyl-1-{5-[1-(2-dimethylamino-ethyl)-1H-pyrazol-4-yl]-[1,2,4]oxadiazol-yl}-ethyl)-phenyl]-pyrimidin-2-ylamine] showed an IC50 [1] of 3.1 nM and an IC50 [2] of 14 nM.
With CC(=O)N1CCN(c2nc(C(C)(c3ccc(-c4cnc(N)nc4)cc3)C(C)C)no2)CC1 (centres unmarked) [Example 169, 1-[4-(3-{1-[4-(2-Amino-pyrimidin-5-yl)-phenyl]-1,2-dimethyl-propyl}-[1,2,4]oxadiazol-5-yl)-piperazin-1-yl]-ethanone] the IC50 [1] was 14 nM and the IC50 [2] was 370 nM.
CN(C)C(=O)Cn1cc(-c2nc([C@@](C)(c3ccc(-c4cnc(N)nc4F)cc3)C3CC3)no2)cn1 [Example 293, 2-[4-(3-{(R)-1-[4-(2-Amino-4-fluoro-pyrimidin-5-yl)-phenyl]-1-cyclopropyl-ethyl}-[1,2,4]oxadiazol-5-yl)-pyrazol-1-yl]-N,N-dimethyl-acetamide] was tested, and the IC50 [1] was 3.5 nM and the IC50 [2] was 110 nM.
Work on Cn1cc(-c2nc(C(C)(c3ccc(-c4cnc(N)nc4)cc3)C3CCC3)no2)cn1 (centres unmarked) [Example 33, 5-(4-{1-cyclobutyl-1-[5-(1-methyl-1H-pyrazol-4-yl)-1,2,4-oxadiazol-3-yl]ethyl}phenyl)pyrimidin-2-amine] yielded an IC50 [1] of 6.6 nM and an IC50 [2] of 210 nM.
CC(c1ccc(-c2cnc(N)nc2)cc1)(c1noc(-c2cn[nH]c2)n1)C1CC1 (centres unmarked) [Example 21, 5-(4-{1-cyclopropyl-1-[5-(1H-pyrazol-4-yl)-1,2,4-oxadiazol-3-yl]ethyl}phenyl)pyrimidin-2-amine] showed an IC50 [1] of 5.5 nM and an IC50 [2] of 87 nM.
With Cc1nc(N)ccc1-c1ccc(C(C)(c2noc(-c3cnn(CC(=O)N(C)C)c3)n2)C2CC2)cc1 (centres unmarked) [Example 244, 2-[4-(3-{1-[4-(6-Amino-2-methyl-pyridin-3-yl)-phenyl]-1-cyclopropyl-ethyl}-[1,2,4]oxadiazol-5-yl)-pyrazol-1-yl]-N,N-dimethyl-acetamide] the IC50 [1] was 25 nM and the IC50 [2] was 270 nM.
CC(C)C(C)(c1ccc(-c2cnc(N)nc2)cc1)c1noc(-c2cncc3ccccc23)n1 (centres unmarked) [Example 127, 5-(4-{2-[5-(isoquinolin-4-yl)-1,2,4-oxadiazol-3-yl]-3-methylbutan-2-yl}phenyl)pyrimidin-2-amine] was tested, and the IC50 [1] was 2.9 nM and the IC50 [2] was 650 nM.
CCNc1ncc(-c2ccc(C(C)(c3noc(-c4cnn(CC(=O)N(C)C)c4)n3)C3CC3)cc2)cn1 (centres unmarked) [Example 249, 2-[4-(3-{1-Cyclopropyl-1-[4-(2-ethylamino-pyrimidin-5-yl)-phenyl]-ethyl}-[1,2,4]oxadiazol-5-yl)-pyrazol-1-yl]-N,N-dimethyl-acetamide] was tested, and the IC50 [1] was 370 nM and the IC50 [2] was over 5000 nM.
Work on C[C@@](c1ccc(-c2ccc(N)nc2)cc1)(c1noc(N2CCC(O)CC2)n1)C1CC1 [Example 282, 1-(3-{(R)-1-[4-(6-Amino-pyridin-3-yl)-phenyl]-1-cyclopropyl-ethyl}-[1,2,4]oxadiazol-5-yl)-piperidin-4-ol] yielded an IC50 [1] of 6.5 nM and an IC50 [2] of 44 nM.
CC(C)C(C)(c1ccc(-c2cnc(N)nc2)cc1)c1noc(-c2ccnnc2)n1 (centres unmarked) [Example 147, 5-(4-{3-methyl-2-[5-(pyridazin-4-yl)-1,2,4-oxadiazol-3-yl]butan-2-yl}phenyl)pyrimidin-2-amine] was tested, and the IC50 [1] was 2.7 nM and the IC50 [2] was 86 nM.
CC(C)C(C)(c1ccc(-c2cnc(N)nc2)cc1)c1noc(NCC(C)(C)O)n1 (centres unmarked) [Example 82, 1-[(3-{2-[4-(2-aminopyrimidin-5-yl)phenyl]-3-methylbutan-2-yl}-1,2,4-oxadiazol-5-yl)amino]-2-methylpropan-2-ol] was tested, and the IC50 [1] was 13 nM and the IC50 [2] was 220 nM.
With CC(C)C(C)(c1ccc(-c2cnc(N)nc2)cc1)c1noc(NC2CCC(O)CC2)n1 (centres unmarked) [Example 237, 4-(3-{1-[4-(2-Amino-pyrimidin-5-yl)-phenyl]-1,2-dimethyl-propyl}-[1,2,4]oxadiazol-5-ylamino)-cyclohexanol] the IC50 [1] was 26 nM and the IC50 [2] was 470 nM.

From US8658661B2, “Oxadiazole inhibitors of leukotriene production” (Boehringer Ingelheim International GmbH, priority 2010, dated 2014)
